From patent US10450421B2, “Synthesis of multiarm poly[(R)-3-hydroxybutyrate] and its derivatives” (AGENCY FOR SCIENCE, TECHNOLOGY AND RESEARCH, priority 2015, dated 2019) come the findings set out here.

In general, MIC refers to the smallest concentration in the dilution series that meets the test's criterion for growth inhibition.

For one experiment, the system named is S. aureus. Description: Antimicrobial test, MIC against S. aureus. The class given is cell-based. The note with it: Gram-positive bacteria S. aureus (n = 2). The procedure:
(§1) The solutions based on the Q-PHB-PDMAEMA were tested for efficacy in killing clinically significant pathogens: the […] and Gram-negative bacteria (E. coli).

The next experiment relates to E. coli. Description: Antimicrobial test, MIC against E. coli. The class given is cell-based. The note with it: Gram-negative bacteria E. coli (n = 2). The procedure: as §1

Ends that are not written are not given here.

On to GIGKFLHSAGKFGKAFVGEIMKS [Magainin I], for which the minimum inhibitory concentration (MIC) against S. aureus and in the experiment with E. coli was 130 µg/mL throughout.
